Measured values reported in patent US9914712B2, “Antibacterial thiazolecarboxylic acids” (priority 2013, dated 2018).

Tests used:
IMP-1 = target: T1, IMP-1 (Serratia marcescens, UniProt P52699); assay: In vitro MBL inhibition assay, imipenem hydrolysis (IMP-1); assay type: biochemical; details: Ki IMP-1, imipenem substrate, Ki from IC50 by Cheng-Prusoff, Km 25 μM
T1 construct: made in house
Experimental: The MBL enzyme IMP-1 is produced and purified as disclosed in Laraki et al, Antimicrobial Agents & Chemotherapy, (1999), 43(4), 902-906.
(§1) Reaction buffers were prepared in a UV-transparent 96-well microplate, which buffer contains 10 mM HEPES pH 7.5, 50 μM ZnSO4, 20 μg/mL BSA. An amount of 75 ng of protein was added to each well.
(§2) Spectrophometric assays are performed to determine NDM-1/VIM-2/IMP-1 carbapenemase activity using purified proteins (50 ng for NDM-1/VIM-2, 25 ng IMP-1) from NDM-1/VIM-2/IMP-1 expressing bacteria using […] of imipenem as substrate in 10 mM HEPES pH 7.5, 50 μM ZnSO4. MBL hydrolysis is measured at 299 nm for 10 minutes at 30° C. as the absorbance changes due to the opening of beta-lactam ring of the antibiotic.
(§3) The Ki values obtained for selected example compounds are shown in Table 3, where they are compared with the values for pyridine-2-carboxylic acid.

NDM-1 = target: T2, NDM-1 (Klebsiella pneumoniae, UniProt C7C422); assay: In vitro MBL inhibition assay, imipenem hydrolysis (NDM-1); assay type: biochemical; details: Ki NDM-1, imipenem substrate, Ki from IC50 by Cheng-Prusoff, Km 70 μM
T2 construct: made in house
T2 sequence (C7C422 29-270 limits assumed): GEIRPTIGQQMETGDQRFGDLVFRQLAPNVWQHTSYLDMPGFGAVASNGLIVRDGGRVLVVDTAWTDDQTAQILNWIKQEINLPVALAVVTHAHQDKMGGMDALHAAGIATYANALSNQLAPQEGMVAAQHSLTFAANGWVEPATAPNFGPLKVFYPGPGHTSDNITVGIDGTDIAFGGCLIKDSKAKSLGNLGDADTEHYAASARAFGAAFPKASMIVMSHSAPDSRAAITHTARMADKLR
Experimental: NDM-1 is produced and purified as disclosed in Yong et al, Antimicrobial Agents & Chemotherapy, (2009) 53(12), 5046-54.
as §1, §2, §3

VIM-2 = target: T3, VIM-2 (Escherichia coli, UniProt Q5U7L7); assay: In vitro MBL inhibition assay, imipenem hydrolysis (VIM-2); assay type: biochemical; details: Ki VIM-2, imipenem substrate, Ki from IC50 by Cheng-Prusoff, Km 9 μM
T3 construct: made in house
Experimental: The MBL enzyme VIM-2 is produced and purified as disclosed in Borgianni et al, Antimicrobial Agents & Chemotherapy, (2010), 54(8), 3197-3204.
as §1, §2, §3

NTBC039 = assay: MIC of meropenem in presence of the inhibitor, broth microdilution; assay type: cell-based; details: compound at 100 μM, 37° C., 18-20 h
[1] = tested on: NTBC023 strain: Klebsiella pneumoniae producing VIM-1+SHV-5; assay: as above; assay type: cell-based; details: compound at 100 μM, 37° C., 18-20 h
Experimental: (§4) The minimal inhibitory concentration (MIC) of meropenem in presence of the inhibitor is routinely assessed against 3 representative clinical strains: • NTBC020 Strain: Escherichia coli producing NDM-1+TEM-1+CTX-M-15, (isolated in Australia in 2009); • NTBC023 strain: Klebsiella pneumoniae producing VIM-1+SHV-5, (isolated in France in 2002); • NTBC062 strain: Klebsiella pneumoniae producing IMP-1+TEM-1, (isolated in France in 2012);
(§5) The assay was performed according to the standard broth microdilution method described by the Clinical and Laboratory Standards Institute (CLSI-M7-A7—Methods for dilution antimicrobial susceptibility tests for bacteria that grow aerobically; Approved standard; CLSI, Wayne, Pa., USA. 2006). This method involves the use of small volumes of broth dispensed in sterile, plastic 96-wells microdilution plates. The compounds were tested at a concentration of 100 μM and controls included the susceptibility tests for the three selected strains without the compounds and for the two reference strains E. coli ATCC 25922 and Pseudomonas aeruginosa ATCC 27853 as Quality Controls.
(§6) From a stock solution at 20 mM in DMSO, compounds were prepared by diluting 0.04 mL of the compound solution in 0.04 mL of Mueller-Hinton (MH) broth (2-fold dilution). Then, 0.001 mL of the compound dilution was distributed in the 96-wells microdilution plates to give a final concentration of 100 μM for a final volume of 0.1 mL by well.
(§7) From a meropenem stock solution at 10 mg/ml in water, meropenem 2-fold serial dilutions were prepared in MH broth at twice the desired final concentrations, e.g from 512 to 0.0037 μg/ml. The 96-wells microdilution plates were then filled with 0.05 mL of the meropenem dilutions. For each susceptibility test, two wells were left free of antibiotic and filled with 0.05 mL of sterile MH broth to serve as growth controls.
(§8) The bacterial inoculum was prepared by direct colony suspension from a 24 h-agar plate in saline solution (NaCl 9 g/L). The suspension was adjusted to a 0.5 MacFarland turbidity standard (1-2×10^8 CFU/mL) and then diluted 1:100 in MH broth. 0.05 mL of the bacterial dilution was then inoculated to each well giving a final volume of 0.1 mL and a final bacterial concentration of approximately 5×10^5 CFU/mL.
(§9) Microdilution plates were incubated at 37° C. in an ambient air incubator for 18-20 h.

[2] = tested on: NTBC020 Strain: Escherichia coli producing NDM-1+TEM-1+CTX-M-15; assay: as above; assay type: cell-based; details: compound at 100 μM, 37° C., 18-20 h
Experimental: as §4, §5, §6, §7, §8, §9

T1 sequence (P52699 19-246, species assumed): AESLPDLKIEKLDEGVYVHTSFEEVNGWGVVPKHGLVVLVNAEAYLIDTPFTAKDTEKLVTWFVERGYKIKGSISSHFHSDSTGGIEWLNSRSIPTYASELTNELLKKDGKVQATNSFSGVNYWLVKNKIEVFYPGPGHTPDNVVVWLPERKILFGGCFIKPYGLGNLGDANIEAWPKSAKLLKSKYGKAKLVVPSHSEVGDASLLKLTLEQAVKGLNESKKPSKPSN

Row | SMILES | Ki (IMP-1) [nM] | Ki (NDM-1) [nM] | Ki (VIM-2) [nM] | MIC of meropenem, strain NTBC039 (NTBC039) [µg/mL] | MIC of meropenem, strain NTBC023 [1] [µg/mL] | MIC of meropenem, strain NTBC020 [2] [µg/mL]
1 | O=C(O)c1ncsc1NS(=O)(=O)Cc1ccccc1 [Compound 5, 5-(phenylmethylsulfonamido)thiazole-4-carboxylic acid] | 50 | 2500 | 210 | – | – | –
2 | O=C(O)c1ncsc1NS(=O)(=O)CCc1ccccc1 [Compound 7, 5-(2-phenylethylsulfonamido)thiazole-4-carboxylic acid] | 30 | 750 | 80 | – | – | –
3 | O=C(O)c1ncsc1NS(=O)(=O)c1ccc(-c2ccccc2)s1 [Compound 20, 5-(5-phenylthiophene-2-sulfonamido)thiazole-4-carboxylic acid] | 100 | 940 | 480 | – | – | –
4 | O=C(O)c1ncsc1NS(=O)(=O)Cc1cccc(Cl)c1Cl [Compound 48, 5-{[(2,3-dichlorophenyl)methyl]sulfonamido}-1,3-thiazole-4-carboxylic acid] | – | – | – | 0.25 | 2 | 4
5 | Cc1nc(C(=O)O)c(NS(=O)(=O)Cc2ccccc2)s1 [Compound 50, 5-benzylsulfonamido-2-methyl-1,3-thiazole-4-carboxylic acid] | 60 | 1700 | 260 | – | – | –
6 | O=C(O)c1nc(-c2ccccc2)sc1NS(=O)(=O)c1ccccc1 [Compound 58, 5-benzenesulfonamido-2-phenyl-1,3-thiazole-4-carboxylic acid] | 70 | 2300 | 800 | – | – | –
7 | CC(c1ccccc1)S(=O)(=O)Nc1scnc1C(=O)O (stereo not drawn) [Compound 60, 5-[(1-phenylethyl)sulfonamido]-1,3-thiazole-4-carboxylic acid] | 70 | 800 | 100 | – | – | –
8 | O=C(O)c1ncsc1NS(=O)(=O)CCN1C(=O)c2ccccc2C1=O [Compound 63, 5-{[2-(1,3-dioxo-2,3-dihydro-1H-isoindol-2-yl)ethyl]sulfonamido}-1,3-thiazole-4-carboxylic acid] | 1700 | 600 | 130 | – | – | –
9 | O=C(O)c1ncsc1NS(=O)(=O)c1ccccc1Cl [Compound 66, 5-[(2-chlorophenyl)sulfonamido]-1,3-thiazole-4-carboxylic acid] | – | – | – | 8 | 8 | 16
10 | O=C(O)c1ncsc1NS(=O)(=O)c1cccnc1 [Compound 67, 5-(pyridine-3-sulfonamido)-1,3-thiazole-4-carboxylic acid] | – | – | – | 8 | 16 | 1
11 | O=C(O)c1ncsc1NS(=O)(=O)CC1CCCCC1 [Compound 69, 5-(cyclohexylmethyl)sulfonamido-1,3-thiazole-4-carboxylic acid] | – | – | – | 1 | 4 | 16
12 | O=C(O)c1ncsc1NS(=O)(=O)N1CCCCC1 [Compound 75, 5-[(piperidine-1-sulfonyl)amino]-1,3-thiazole-4-carboxylic acid] | 940 | 2100 | 340 | – | – | –
13 | CN(Cc1ccccc1)S(=O)(=O)Nc1scnc1C(=O)O [Compound 77, 5-{[benzyl(methyl)sulfamoyl]amino}-1,3-thiazole-4-carboxylic acid] | 120 | 1300 | 30 | – | – | –
14 | CC(=O)Nc1ccc(S(=O)(=O)Nc2scnc2C(=O)O)cc1 [Compound 78, 5-[(4-acetamidophenyl)sulfonamido]-1,3-thiazole-4-carboxylic acid] | 50 | 160 | 400 | – | – | –
15 | Cc1c(S(=O)(=O)Nc2scnc2C(=O)O)cnn1-c1ccccc1 [Compound 81, 5-[(5-methyl-1-phenyl-1H-pyrazol-4-yl)sulfonamido]-1,3-thiazole-4-carboxylic acid] | 410 | 130 | 30 | – | – | –
16 | CN(c1ccccc1)S(=O)(=O)Nc1scnc1C(=O)O [Compound 88, 5-{[methyl(phenyl)sulfamoyl]amino}-1,3-thiazole-4-carboxylic acid] | 580 | 1000 | 160 | – | – | –
17 | O=C(O)c1ncsc1NS(=O)(=O)c1ccc(-n2cccn2)cc1 [Compound 94, 5-{[4-(1H-pyrazol-1-yl)phenyl]sulfonamido}-1,3-thiazole-4-carboxylic acid] | – | – | – | 4 | 8 | 16
18 | O=C(O)c1nc(C(F)(F)F)sc1NS(=O)(=O)Cc1ccccc1Cl [Compound 96, 5-{[(2-chlorophenyl)methyl]sulfonamido}-2-(trifluoromethyl)-1,3-thiazole-4-carboxylic acid] | 1200 | 2700 | 350 | – | – | –
19 | O=C(O)c1ncsc1NS(=O)(=O)CCCc1ccccc1 [Compound 101, 5-[(3-phenylpropyl)sulfonamido]-1,3-thiazole-4-carboxylic acid] | – | – | – | 1 | 8 | 32
20 | O=C(O)c1ncsc1NS(=O)(=O)C1CCc2ccccc21 (stereo not drawn) [Compound 104, 5-(2,3-dihydro-1H-indene-1-sulfonamido)-1,3-thiazole-4-carboxylic acid] | – | – | – | 2 | 4 | 16
21 | O=C(O)c1ncsc1NS(=O)(=O)c1ccc(C2CCNCC2)cc1 [Compound 118, 5-{[4-(piperidin-4-yl)phenyl]sulfonamido}-1,3-thiazole-4-carboxylic acid] | – | – | – | 4 | 8 | 4
22 | O=C(O)c1ncsc1NS(=O)(=O)Cc1cccc(F)c1F [Compound 124, 5-{[(2,3-difluorophenyl)methyl]sulfonamido}-1,3-thiazole-4-carboxylic acid] | – | – | – | 0.25 | 4 | 4
23 | O=C(O)c1ncsc1NS(=O)(=O)Cc1cc2c(cc1Cl)OCO2 [Compound 144, 5-[(6-chloro-2H-1,3-benzodioxol-5-yl)methylsulfonamido]-1,3-thiazole-4-carboxylic acid] | – | – | – | 1 | 8 | 16
24 | O=C(O)c1ncsc1NS(=O)(=O)N1CCc2ccccc21 [Compound 147, 5-[(2,3-dihydroindole-1-sulfonyl)amino]-1,3-thiazole-4-carboxylic acid] | – | – | – | 4 | 16 | 8
25 | O=C(O)c1ncsc1NS(=O)(=O)CCc1cccnc1 [Compound 151, 5-[2-(pyridin-3-yl)ethylsulfonamido]-1,3-thiazole-4-carboxylic acid] | 1800 | 3200 | 100 | – | – | –
26 | O=C(O)c1ccccn1 [Pyridine-2-carboxylic acid, pyridine-2-carboxylic acid, reference compound] | 300000 | 3000 | 1000 | – | – | –
